* marks the point of attachment. C16 alkyl = CCCCCCCCCCCCCCCC*
Experiments:
[1] = system: Rat Bladder Augmentation Model; experiment: Blood vessel quantification in areas of bladder tissue regeneration; format: in vivo; details: means±SE
Procedure: (§1) Athymic female rats (weighing ˜200 g and 8-10 weeks old; National Cancer Institute Animal Production Program) underwent bladder augmentation (ref. 15; herein incorporated by reference in its entirety). Athymic rats were chosen for this study to solely examine the innate immune response to inflammation without influence of the adaptive immune response. In order to induce anesthesia, animals were given intraperitoneal injections of 60 mg/kg ketamine and 5 mg/kg xylazine. A second injection consisting of Buprenex (1 mg/kg) was administered subcutaneously to alleviate any pain/discomfort during and following surgical procedures. An approximate 1.5 cm midline vertical skin incision was created to expose the abdominal fascia and muscles. This was immediately followed by the separation of the wall leading to the identification of the bladder. An approximate 70% supratrigonal cystectomy was performed from anterior to posterior creating a clamshell. Immediately prior to bladder augmentation procedures, samples of the pro-inflammatory biological scaffold, small intestinal submucosa (SIS (0.5×0.5 cm); Cook Biotech.) (refs. 12,13,16; herein incorporated by reference in their entireties) were thoroughly dip-coated separately in one of the previously described AIF-PAs following gelation procedures. The sections of SIS were dip-coated for approximately 20 seconds and allowed to adhere to the SIS for an additional 30 seconds. Dip-coating procedures were performed at room temperature in air. The cystectomized bladder defect was then augmented with: 1) SIS (non-AIF-PA coated SIS; n=8 animals over both time-points); 2) AIF-PA1 coated SIS (denoted as SIS/AIF-PA1; n=11 animals over both time-points); 3) AIF-PA2 coated SIS (denoted as SIS/AIF-PA2; n=8 animals over both time-points); 4) AIF-PA3 coated SIS (denoted as SIS/AIF-PA3; n=3); 5) AIF-PA4 coated SIS (denoted as SIS/AIF-PA4; n=3 animals); 6) AIF-PA5 coated SIS (denoted as SIS/AIF-PA5; n=3 animals); and 7) AIFC-PA6 coated SIS (denoted as SIS/AIFC-PA6; n=9 animals over both time-points). The bladder was finally covered with omentum after being closed in a watertight manner utilizing 7-0 polyglactin suture. The abdominal wall was then closed in a single layer with 5-0 ethibond running suture and the skin re-approximated with 9 mm autoclips. Each group was sacrificed at 10 day and 5 week time-points.
Trichrome sample images were opened with Adobe Photoshop CS3 and were initially characterized utilizing a Nikon Eclipse 50i Microscope in addition to Spot Advanced Imaging Software. Vessel numbers were quantified utilizing the pen tool based upon n=10 images per graft in regenerated areas. Individual vessels were selected manually and subsequently quantified using the image histogram tool to acquire pixel density for each vessel. Data is represented as mean number of vessels/mm^2 (means±SE).

CD206+ M2 macrophages = experiment: M2 macrophage subtype (CD206) distribution in regenerating bladder tissue; format: in vivo, rat; details: for M2 macrophage levels, in words: 10 days to 5 weeks
Procedure: as §1
(§2) Tissue sections comprised of SIS alone, SIS/AIF-PA1, SIS/AIF-PA2, and SIS/AIF-PA6 augmentations were subjected to immunofluorescence staining by initially undergoing antigen retrieval which consisted of 15 min of boiling in citrate buffer (0.01M citrate solution, pH 6.0 with 0.05% Tween-20) followed by cooling at room temperature for approximately 20 minutes. The antibody staining process consisted of a blocking step for 15 min in bovine serum albumin (BSA, 5 mg/ml) followed by a 40 minutes incubation at room temperature with the primary antibody. After washing with DPBS, slides were incubated for 30 min with a secondary antibody and eventually rinsed with DPBS and air dried. Slides were mounted with Vectashield (Vector Laboratories). Primary antibodies were directed against epitopes for the inflammatory markers CD68 (macrophage) (refs. 18,19; herein incorporated by reference in their entireties) MPO (neutrophil) (ref. 20; herein incorporated by reference in its entirety) or the inflammation-related proteins IL1β, TNFα, IL-10, IL-13, CD206 (M2 macrophage) (refs. 21-25; herein incorporated by reference in their entireties) and CD86 (M1 macrophage) (ref. 26; herein incorporated by reference in its entirety). Antibodies directed against the ECM in regenerating bladder tissue (including COL4A3 and fibronectin) were also utilized. Alexa Red 555 or FITC conjugated secondary antibodies (Molecular Probes) were utilized for visualization (ref. 15; herein incorporated by reference in its entirety). […]

IL-10 = IL-10 expression in regenerated bladder tissue (immunofluorescence); format: in vivo, rat; details: for Cytokine expression (shown as percentage of cells staining positive) Anti-inflammatory IL-10: 5 weeks post-augmentation, means ± SE; for percentage of cells staining positive for IL-10: 10 days post-augmentation
Procedure: as §1, §2

[2] = system: Rat Bladder Augmentation Model; experiment: Bladder capacity measurement of augmented bladders; format: in vivo; details: 5 weeks post-augmentation vs pre-surgery; means ± SE
Procedure: Athymic female rats (weighing ˜200 g and 8-10 weeks old; National Cancer Institute Animal Production Program) underwent bladder augmentation (ref. 15; herein incorporated by reference in its entirety). Athymic rats were chosen for this study to solely examine the innate immune response to inflammation without influence of the adaptive immune response. In order to induce anesthesia, animals were given intraperitoneal injections of 60 mg/kg ketamine and 5 mg/kg xylazine. A second injection consisting of Buprenex (1 mg/kg) was administered subcutaneously to alleviate any pain/discomfort during and following surgical procedures. An approximate 1.5 cm midline vertical skin incision was created to expose the abdominal fascia and muscles. This was immediately followed by the separation of the wall leading to the identification of the bladder. An approximate 70% supratrigonal cystectomy was performed from anterior to posterior creating a clamshell. Immediately prior to bladder augmentation procedures, samples of the pro-inflammatory biological scaffold, small intestinal submucosa (SIS (0.5×0.5 cm); Cook Biotech.) (refs. 12,13,16; herein incorporated by reference in their entireties) were thoroughly dip-coated separately in one of the previously described AIF-PAs following gelation procedures. The sections of SIS were dip-coated for approximately 20 seconds and allowed to adhere to the SIS for an additional 30 seconds. Dip-coating procedures were performed at room temperature in air. […]
The bladders of anesthetized athymic rats were exposed through the abdomen as previously described. […] Continuous reading of the transvesical pressure was measured and plotted using LabChart 7.3 software (AD Instruments). […] Bladder capacity was measured by a modified protocol (ref. 13; herein incorporated by reference in its entirety). […]

[3] = system: Rat Bladder Augmentation Model; experiment: Lectin labelling of functional blood vessels in regenerated bladder; format: in vivo; details: 5W post-augmentation
Procedure: In order to determine whether blood vessels in regenerating tissue underwent functional angiogenesis, a fluorochrome conjugated tomato lectin was injected into the animals immediately prior to euthanization to label potential angiogenic vessels. […] Magnification 400× (Scale bar, 50 μm).

Substance	number of vessels in regenerated tissue ([1]; 5W post-augmentation) [vessels/mm^2]	number of vessels in regenerated tissue ([1]; 10D post-augmentation) [vessels/mm^2]	number of M2 macrophages (CD206+ M2 macrophages; 5W post-augmentation) [cells/mm^2]	number of M2 macrophages (CD206+ M2 macrophages; 10D post-augmentation) [cells/mm^2]	Cytokine expression (shown as percentage of cells staining positive) Anti-inflammatory IL-10 (IL-10) [percentage]	percentage of cells staining positive for IL-10 (IL-10) [%]	Bladder Capacity Recovery [2] [%]	M2 macrophage levels, in words (CD206+ M2 macrophages)	functional angiogenesis of newly formed blood vessels (lectin) [3]
C16-VVVAAAEEEKLMSQKMVD (SEQ ID NO:6) ({C16 alkyl}-VVVAAAEEEKLMSQKMVD-NH2) [SIS/AIFC-PA6, reference compound]	53.3±4.4	37.0±2.3	539.3±46.7	842.5±18.9	21.1 ± 2.1	27.8±3.0	105.4 ± 5.1		
C16-VVVAAAEEEHDMNKVLDL (SEQ ID NO:2) ({C16 alkyl}-VVVAAAEEEHDMNKVLDL-NH2) [SIS/AIF-PA2, anti-inflammatory peptide amphiphile, tested dip-coated on small intestinal submucosa (SIS) scaffold]	96.7±4.4	71.5±6.7	224.7±39.0		33.2 ± 2.3	56.2±3.4	104.4 ± 6.7	Comparatively low numbers	functional, patent blood vessels
C16-VVVAAAEEEMQMKKVLDS (SEQ ID NO:1) ({C16 alkyl}-VVVAAAEEEMQMKKVLDS-NH2) [SIS/AIF-PA1, anti-inflammatory peptide amphiphile, tested dip-coated on small intestinal submucosa (SIS) scaffold]	90.7±4.5	71.0±1.5	301.7±23.0		30.0 ± 1.6	52.0±3.1	112.1 ± 3.3	further decreased by 5 weeks	functional, patent blood vessels

From patent publication US11161876B2, “Anti-inflammatory nanofibers” (Northwestern University, priority 2015, dated 2021)
